The target of this experiment is T1, rat PI3Kδ (Rattus norvegicus, UniProt A0A8I5Y949).
T1 sequence (A0A8I5Y949 1-1047): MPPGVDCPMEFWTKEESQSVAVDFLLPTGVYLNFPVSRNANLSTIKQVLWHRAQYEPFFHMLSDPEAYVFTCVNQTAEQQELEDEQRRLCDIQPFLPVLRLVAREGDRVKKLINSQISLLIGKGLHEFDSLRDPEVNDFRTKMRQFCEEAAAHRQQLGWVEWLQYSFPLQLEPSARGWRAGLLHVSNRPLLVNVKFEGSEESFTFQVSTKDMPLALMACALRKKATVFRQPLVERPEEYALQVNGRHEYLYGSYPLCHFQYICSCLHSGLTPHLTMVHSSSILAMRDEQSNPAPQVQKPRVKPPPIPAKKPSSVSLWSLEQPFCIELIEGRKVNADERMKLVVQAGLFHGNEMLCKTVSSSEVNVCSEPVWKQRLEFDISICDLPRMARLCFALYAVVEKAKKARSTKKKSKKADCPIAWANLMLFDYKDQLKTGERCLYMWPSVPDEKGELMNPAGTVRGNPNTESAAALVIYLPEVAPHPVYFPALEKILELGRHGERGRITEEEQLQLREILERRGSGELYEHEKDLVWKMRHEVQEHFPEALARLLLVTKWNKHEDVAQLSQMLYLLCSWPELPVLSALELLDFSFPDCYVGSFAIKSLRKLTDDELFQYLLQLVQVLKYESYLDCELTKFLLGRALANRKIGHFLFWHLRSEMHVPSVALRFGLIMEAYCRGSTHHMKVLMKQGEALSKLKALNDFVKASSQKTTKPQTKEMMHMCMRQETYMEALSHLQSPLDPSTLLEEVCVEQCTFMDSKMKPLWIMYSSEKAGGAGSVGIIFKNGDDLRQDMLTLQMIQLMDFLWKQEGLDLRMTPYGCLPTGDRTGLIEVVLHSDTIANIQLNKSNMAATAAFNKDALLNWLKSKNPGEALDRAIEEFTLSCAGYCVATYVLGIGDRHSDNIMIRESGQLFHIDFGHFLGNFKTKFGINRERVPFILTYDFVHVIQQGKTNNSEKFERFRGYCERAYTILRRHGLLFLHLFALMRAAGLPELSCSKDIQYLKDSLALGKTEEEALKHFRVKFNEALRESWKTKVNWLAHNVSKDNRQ
Description: PI3K δ assay: anti-IgM-stimulated CD86 expression on rat splenic B cells (FACS). The class given is cell-based. The note with it: mean ± SEM, n = 3. On the procedure: PI3K δ assay: single cell suspension was obtained from the spleen of male Sprague Dawley rat; cells were cultured in RPMI containing heat-inactivated 10% FBS, pre-treated (1 hr., 37 °C, 5% CO2) with vehicle DMSO or PI3K inhibitors, followed by stimulation with AffiniPure F(ab’)2 Fragment Goat Anti-Rat IgM, μ chain specific, Jackson Immunoresearch (112–006-075) at 5 μg/mL (EC80 determined in house; 20–22 hrs). Then, cells were washed with FACS buffer (2% FBS, […]) and stained (15 mins, 4 °C) with Fc block (1:100, 550,273, BD bioscience), LIVE/DEAD Fixable Aqua Dead Cell Stain Kit (L34957, Invitrogen, 1:300), CD45R (B220)-PeCy7 (HIS24) (25–0460-82, eBioscience, 1:100), CD3-AF647 (IF4) (201,408, Biolegend, 1:100), CD86-FITC (24F) (200,305, Biolegend, 1:50). Cells were acquired on the Flow Cytometer (BD LSRFortessa™) and analysed using FlowJo 9.9 software (TreeStar). FACS gating strategy: lymphocytes (FSC-A vs SSC-A), doublets exclusion (FSC-W vs FSC-H), live cells (Aqua-530-), B cell identification CD3- B220 + % of positive B cells for CD86. IC50 values were determined in Graph Pad through a nonlinear fit on log transform data: log inhibitor vs response, variable slope, 4 parameters. Fraction unbound in in vitro assay is calculated using the following equation: fu^′=DF·fup/1+DF-1·fup where fu’ is the fraction unbound in assay media; fup is the experimentally determined fraction unbound in undiluted human plasma; DF is the dilution factor (fold difference between protein concentration in human plasma and assay media, using an albumin concentration of 600 μM (40 g/L) for undiluted plasma) Table 2.

This passage reports IC50 results from PMC11040934, “PI3Kγδ inhibition suppresses key disease features in a rat model of asthma” (Respiratory Research, 2024).

Like-named read-outs stand apart in the source and are kept apart here.

For orientation: IC50 means the concentration that gives 50% inhibition.

For `Cc1nc(Nc2cccc(N3CCCC3=O)n2)sc1-c1cc2c(c(S(C)(=O)=O)c1)C(=O)N([C@@H](C)C1CC1)C2` [AZD8154], the IC50 was found to be 10.5 ± 6.2 nM (CD86 expression on B cells, read-out: rat δ total IC50) and 0.63 ± 0.37 nM (corrected for protein binding in the assay, read-out: rat δ free IC50).
